Reference: patent US20140348819A1, “Methods of Treating Cancer” (Dana-Farber Cancer Institute, Inc., priority 2011, published 2014)

Experiments:
[1] = system: six V600E BRAF melanoma cell lines; assay: Screening of recombinant RTK ligands for ability to confer resistance to BRAFi (PLX4720) or MEKi (PD184352) (Table 4); format: cell-based, human; parameters: ability of recombinant RTK ligand to confer resistance / ability of recombinant RTK ligand to confer resistance (screening value): scale not given here
In short: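 Six V600E BRAF melanoma lines treated with PLX4720 or PD184352 after addition of 22 recombinant RTK ligands, scored for drug resistance. Activation of selected RTKs confirmed by western blotting and high-throughput tyrosine kinase phosphorylation profiling.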

pERK/pAKT = assay: High-throughput western analysis of pERK/pAKT re-activation by RTK ligands under BRAFi/MEKi; format: cell-based, human; details: under BRAFi (PLX4720); after 1 hour of cytokine treatment; six V600E BRAF melanoma cell lines
Method: FIG. 23B is a western blot showing the activation of AKT (phosphorylated AKT, S473) after 1 hour and 24 hours after treatment with HGF, IGF-1 (IGF), and Insulin (INS) in the presence of BRAFi (PLX4720, 2 μM). FIG. 23C is a western blot showing the effect of HGF (25 ng/mL) on MAPK and PI3K/AKT pathway activation (pRAF1, pMEK, pERK, pAKT and pMET) in melanoma cell lines after 24 hours of treatment with 2 μM BRAFi (PLX4720) or 2 μM MEKi (PD184352).
To understand why, of all the RTKs tested, only HGF could induce such a unique primary resistance phenotype, a high-throughput western analysis was used to test the ability of all 22 RTK ligands to re-activate pERK/pAKT under BRAFi (PLX4720) treatment in six V600E BRAF melanoma cell lines. […] However, whereas the activation of both ERK and AKT by HGF under PLX4720 treatment was long lasting, the activation of either ERK or AKT by the above cytokines was only transient and thus could not confer resistance to the melanoma cell lines.

In the case of IGF-1: RTK ligand of IGF-1R, the “ability of RTK ligand to confer primary resistance” value ([1]; six V600E BRAF melanoma cell lines, BRAFi (PLX4720) or MEKi (PD184352)) is reported as “not shown to induce primary resistance” and the “re-activation of pERK/pAKT” value (pERK/pAKT) is reported as “only reactivate AKT”.
“FGF-1: RTK ligand (FGFR), cytokine tested” was tested, and the “re-activation of pERK/pAKT” value (pERK/pAKT) was “reactivate only ERK”.
In the case of NT3, the “ability of recombinant RTK ligand to confer resistance” value (“ability of recombinant RTK ligand” for short) ([1]; A2058, PD184352 - 1 uM, ligand 0.4 ng/ml) is reported as 1.04, the “ability of recombinant RTK ligand” value ([1]; A2058, PD184352 - 1 uM, ligand 1.6 ng/ml) is reported as 1.13 and the “ability of recombinant RTK ligand” value ([1]; A2058, PD184352 - 1 uM, ligand 6.25 ng/ml) is reported as 1.08. For the same substance, the “ability of recombinant RTK ligand” value ([1]; A2058, PD184352 - 1 uM, ligand 25 ng/ml) was 1.01, the “ability of recombinant RTK ligand” value ([1]; A2058, PD184352 - 1 uM, ligand 100 ng/ml) was 0.90 and the “ability of recombinant RTK ligand” value ([1]; A2058, PLX4720 - 2 uM, ligand 0.4 ng/ml) was 1.02. For the same substance, the “ability of recombinant RTK ligand” value ([1]; A2058, PLX4720 - 2 uM, ligand 1.6 ng/ml) was 1.16, the “ability of recombinant RTK ligand” value ([1]; A2058, PLX4720 - 2 uM, ligand 6.25 ng/ml) was 1.09 and the “ability of recombinant RTK ligand” value ([1]; A2058, PLX4720 - 2 uM, ligand 25 ng/ml) was 1.02. For the same substance, the “ability of recombinant RTK ligand” value ([1]; A2058, PLX4720 - 2 uM, ligand 100 ng/ml) was 0.93, the “ability of recombinant RTK ligand” value ([1]; C32, PD184352 - 1 uM, ligand 0.4 ng/ml) was 0.98 and the “ability of recombinant RTK ligand” value ([1]; C32, PD184352 - 1 uM, ligand 1.6 ng/ml) was 1.02. For the same substance, the “ability of recombinant RTK ligand” value ([1]; C32, PD184352 - 1 uM, ligand 6.25 ng/ml) was 0.93, the “ability of recombinant RTK ligand” value ([1]; C32, PD184352 - 1 uM, ligand 25 ng/ml) was 0.95 and the “ability of recombinant RTK ligand” value ([1]; C32, PD184352 - 1 uM, ligand 100 ng/ml) was 0.88. For the same substance, the “ability of recombinant RTK ligand” value ([1]; C32, PLX4720 - 2 uM, ligand 0.4 ng/ml) was 1.00, the “ability of recombinant RTK ligand” value ([1]; C32, PLX4720 - 2 uM, ligand 1.6 ng/ml) was 1.03 and the “ability of recombinant RTK ligand” value ([1]; C32, PLX4720 - 2 uM, ligand 6.25 ng/ml) was 0.91. The “ability of recombinant RTK ligand” value ([1]; C32, PLX4720 - 2 uM, ligand 25 ng/ml) was 1.00, the “ability of recombinant RTK ligand” value ([1]; C32, PLX4720 - 2 uM, ligand 100 ng/ml) was 0.95 and the “ability of recombinant RTK ligand” value ([1]; Colo 829, PD184352 - 1 uM, ligand 0.4 ng/ml) was 1.07. The “ability of recombinant RTK ligand” value ([1]; Colo 829, PD184352 - 1 uM, ligand 1.6 ng/ml) was 1.16, the “ability of recombinant RTK ligand” value ([1]; Colo 829, PD184352 - 1 uM, ligand 6.25 ng/ml) was 1.02 and the “ability of recombinant RTK ligand” value ([1]; Colo 829, PD184352 - 1 uM, ligand 25 ng/ml) was 1.07. For the same substance, the “ability of recombinant RTK ligand” value ([1]; Colo 829, PD184352 - 1 uM, ligand 100 ng/ml) was 1.03, the “ability of recombinant RTK ligand” value ([1]; Colo 829, PLX4720 - 2 uM, ligand 0.4 ng/ml) was 1.03 and the “ability of recombinant RTK ligand” value ([1]; Colo 829, PLX4720 - 2 uM, ligand 1.6 ng/ml) was 1.15. For the same substance, the “ability of recombinant RTK ligand” value ([1]; Colo 829, PLX4720 - 2 uM, ligand 6.25 ng/ml) was 1.00, the “ability of recombinant RTK ligand” value ([1]; Colo 829, PLX4720 - 2 uM, ligand 25 ng/ml) was 1.09 and the “ability of recombinant RTK ligand” value ([1]; Colo 829, PLX4720 - 2 uM, ligand 100 ng/ml) was 1.04. For the same substance, the “ability of recombinant RTK ligand” value ([1]; G-361, PD184352 - 1 uM, ligand 0.4 ng/ml) was 0.98, the “ability of recombinant RTK ligand” value ([1]; G-361, PD184352 - 1 uM, ligand 1.6 ng/ml) was 0.98 and the “ability of recombinant RTK ligand” value ([1]; G-361, PD184352 - 1 uM, ligand 6.25 ng/ml) was 1.01. For the same substance, the “ability of recombinant RTK ligand” value ([1]; G-361, PD184352 - 1 uM, ligand 25 ng/ml) was 1.05, the “ability of recombinant RTK ligand” value ([1]; G-361, PD184352 - 1 uM, ligand 100 ng/ml) was 0.88 and the “ability of recombinant RTK ligand” value ([1]; G-361, PLX4720 - 2 uM, ligand 0.4 ng/ml) was 0.95. The “ability of recombinant RTK ligand” value ([1]; G-361, PLX4720 - 2 uM, ligand 1.6 ng/ml) was 0.98, the “ability of recombinant RTK ligand” value ([1]; G-361, PLX4720 - 2 uM, ligand 6.25 ng/ml) was 1.00 and the “ability of recombinant RTK ligand” value ([1]; G-361, PLX4720 - 2 uM, ligand 25 ng/ml) was 0.98. For the same substance, the “ability of recombinant RTK ligand” value ([1]; G-361, PLX4720 - 2 uM, ligand 100 ng/ml) was 0.84, the “ability of recombinant RTK ligand” value ([1]; SK-MEL-5, PD184352 - 1 uM, ligand 0.4 ng/ml) was 1.02 and the “ability of recombinant RTK ligand” value ([1]; SK-MEL-5, PD184352 - 1 uM, ligand 1.6 ng/ml) was 1.08. The “ability of recombinant RTK ligand” value ([1]; SK-MEL-5, PD184352 - 1 uM, ligand 6.25 ng/ml) was 1.00, the “ability of recombinant RTK ligand” value ([1]; SK-MEL-5, PD184352 - 1 uM, ligand 25 ng/ml) was 0.94 and the “ability of recombinant RTK ligand” value ([1]; SK-MEL-5, PD184352 - 1 uM, ligand 100 ng/ml) was 1.04. The “ability of recombinant RTK ligand” value ([1]; SK-MEL-5, PLX4720 - 2 uM, ligand 0.4 ng/ml) was 0.99, the “ability of recombinant RTK ligand” value ([1]; SK-MEL-5, PLX4720 - 2 uM, ligand 1.6 ng/ml) was 1.02 and the “ability of recombinant RTK ligand” value ([1]; SK-MEL-5, PLX4720 - 2 uM, ligand 6.25 ng/ml) was 0.93. The “ability of recombinant RTK ligand” value ([1]; SK-MEL-5, PLX4720 - 2 uM, ligand 25 ng/ml) was 0.98, the “ability of recombinant RTK ligand” value ([1]; SK-MEL-5, PLX4720 - 2 uM, ligand 100 ng/ml) was 1.09 and the “ability of recombinant RTK ligand” value ([1]; SK-MEL-28, PD184352 - 1 uM, ligand 0.4 ng/ml) was 1.02. The “ability of recombinant RTK ligand” value ([1]; SK-MEL-28, PD184352 - 1 uM, ligand 1.6 ng/ml) was 0.97, the “ability of recombinant RTK ligand” value ([1]; SK-MEL-28, PD184352 - 1 uM, ligand 6.25 ng/ml) was 0.99 and the “ability of recombinant RTK ligand” value ([1]; SK-MEL-28, PD184352 - 1 uM, ligand 25 ng/ml) was 1.15. For the same substance, the “ability of recombinant RTK ligand” value ([1]; SK-MEL-28, PD184352 - 1 uM, ligand 100 ng/ml) was 0.96, the “ability of recombinant RTK ligand” value ([1]; SK-MEL-28, PLX4720 - 2 uM, ligand 0.4 ng/ml) was 0.95 and the “ability of recombinant RTK ligand” value ([1]; SK-MEL-28, PLX4720 - 2 uM, ligand 1.6 ng/ml) was 1.05. The “ability of recombinant RTK ligand” value ([1]; SK-MEL-28, PLX4720 - 2 uM, ligand 6.25 ng/ml) was 0.89, the “ability of recombinant RTK ligand” value ([1]; SK-MEL-28, PLX4720 - 2 uM, ligand 25 ng/ml) was 1.14 and the “ability of recombinant RTK ligand” value ([1]; SK-MEL-28, PLX4720 - 2 uM, ligand 100 ng/ml) was 0.94.
